Where “and” joins values, the source holds several entries; their conditions need not be identical. Identical values can stand only once.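 Five concentrations, 48 hours, 96-well plates. Abbreviation: GI50, concentration required for 50% inhibition of growth. TGI: concentration producing complete growth inhibition.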

Test in all cases: NCI tumour cell line growth inhibition, 48 h
Assay [1] relates to MDA-N.
Assay [2] deals with KM20L2 colon.
For assay [3], the system named is SNB-78 CNS.
Assay [4] relates to P388 leukemia.
The test system of assay [5] is XF 498 CNS.
Assay [6] relates to DLD-1 colon.
Assay [7] has as its system DMS 273 small cell lung.
The subject of assay [8] is LXFL 529 NSCLC.
The test system of assay [9] is HOP-18 NSCLC.
Assay [10] has as its system RXF-631 renal.
Assay [11] has as its system SN12K1 renal.

In turn, `C[C@]12CCC3=NCCN3C1=CC[C@@H]1[C@@H]2CC[C@@]2(C)[C@H]1CC[C@]2(C)O` came in with a TGI in assay [1] of over 100 µM.

In assay [1], `Nc1ncnc2c1nc(Cl)n2C1OC(CO)C(O)C1O` (configuration not stated) came in with a TGI of over 100 µM.

Turning to `O=C(Oc1ccc2c(c1)CN(Cc1ccccc1)CO2)c1ccccc1`, the TGI in assay [1] was 30.7 µM.

With `O=C(/C=C(\[O-])c1ccccc1)CCCCCCC(=O)/C=C(\[O-])c1ccccc1.O=C(/C=C(\[O-])c1ccccc1)CCCCCCC(=O)/C=C(\[O-])c1ccccc1.O=C(/C=C(\[O-])c1ccccc1)CCCCCCC(=O)/C=C(\[O-])c1ccccc1.[Nd+3].[Nd+3]`, in [2], the GI50 was over 50 µM and the TGI was over 50 µM.

As to `Nc1nc(=S)c2[nH]cnc2[nH]1`, the TGI is 67.4 µM in assay [2]; 172 µM in assay [3]; 6.43 µM in [4]; 8.35 µM in assay [5]; 202 µM in assay [6]; 39.1 µM in assay [7]. The TGI in assay [8] amounted to 233 µM; in [9], 139 µM; in [10] it was 113 µM; in assay [11], 11.2 µM. Moreover, the GI50 in assay [1] is 0.541 µM and 1.24 µM.

Take `CN(C)c1ccc(N=C2C=CC(=C(C#N)C#N)c3ccccc32)cc1`: the TGI in assay [3] came to 16.7 µM; in assay [1], 0.441 µM; in assay [5], 1.65 µM; in [6] it was 16.1 µM; in [7] it was 12.6 µM; in assay [9], 16.3 µM.

As for `COc1ccc(-c2cc(-c3ccco3)c(C#N)c(=O)[nH]2)cc1`, the TGI in [2] was over 100 µM; in assay [3] it was over 100 µM; in assay [6], over 100 µM; in [7] it was over 100 µM; in assay [8], over 100 µM; in [9], 74.8 µM. In assay [10], this compound registered a TGI of over 100 µM.

In assay [1], `O=C(O)Cn1ccc(=O)c2cc([N+](=O)[O-])ccc21` gave a TGI of over 100 µM.

Take `Cc1nc(-n2nc(-c3ccccc3)cc2-c2ccccc2)sc1C(=O)/C=C/c1ccccc1`: the TGI in assay [2], in assay [3], in assay [6], in assay [7], in assay [9] and in [10] was over 100 µM each time.

For the compound `N#CCCN(CCC#N)c1ccc(C=Nc2ccc(F)cc2)cc1`, the TGI in assay [2], in assay [3], in [1], in assay [5], in [6] and in [7] was over 100 µM each time. Further, the TGI in [8], in [9] and in assay [10] was over 100 µM in each case.

`O=C1CNN=C(Cn2nc(-c3ccccc3)c3ccccc3c2=O)N1`: the TGI in assay [3], in assay [6], in [7], in assay [8] and in assay [9] was over 100 µM each time.

As to `COc1ccc(C(=O)O/N=C2/CCCCC2CN(C)C)cc1` (configuration not stated), the TGI in assay [2], in assay [3], in [6], in assay [7], in assay [8] and in [9] was over 100 µM throughout. The compound also registered a TGI in [10] of over 100 µM.

For `[Cl-].[Gd+3].[O-]/N=C(\c1ccccc1)c1ccccn1.[O-]/N=C(\c1ccccc1)c1ccccn1.[O-]/N=C(\c1ccccc1)c1ccccn1`, the GI50 in [2] was 39.7 µM; in [6], 39.9 µM; in assay [7], 43.8 µM; in assay [8], 50.1 µM. In addition, the TGI in assay [2], in assay [6], in assay [7] and in [8] was over 100 µM each time.

Take `CN(C)c1ccc(O[Si](Oc2ccc(N(C)C)cc2)(Oc2ccc(N(C)C)cc2)Oc2ccc(N(C)C)cc2)cc1`: the TGI in [2], in [5], in assay [6], in [8] and in [9] was over 100 µM each time.

In the case of `COC(=O)c1sc(=NC(=S)N2CCCCC2)sc1C(=O)OC`, the TGI in [2], in [3], in assay [6], in assay [7], in assay [8] and in assay [9] was over 100 µM in each case. Moreover, the TGI in assay [10] was over 100 µM.

In the case of `Nc1ccc(C(=O)/C=C/c2ccccc2O)cc1`, the TGI in assay [2], in [3], in [5], in assay [6], in assay [8] and in assay [10] was over 100 µM throughout.

As for `COc1ccc2c(c1)[n+](=O)c(C(C)=O)c(C)n2[O-]`, the TGI in [3], in assay [5], in assay [6], in assay [8] and in assay [9] was over 100 µM each time.

`NNC(=O)N/N=C1\CN(c2ccc(Cl)cc2Cl)C(=O)C(=O)C1c1nc2ccccc2o1` (configuration not stated): the TGI in [2], in assay [3], in [5], in assay [6], in assay [7] and in assay [8] was over 100 µM throughout. In assay [10], the TGI was over 100 µM.

Consider `CCCCC[C@@H](C/C=C/CCC(=O)NC/C(=C/Cl)[C@H]1C(=O)C(C)(C)C(=O)[C@@H](C)[C@@]1(C)O)OC`, for which, in assay [1], the GI50 was 18.4 µM and the TGI stood at 36.1 µM.

Turning to `O=NN(CCCl)C(=O)NC1CCCCC1`, the GI50 in assay [2] is 34.3 µM and 163 µM; in assay [5], 18 µM and 82 µM; in [6], 18.4 µM and 42.2 µM; in assay [7], 28.2 µM and 76.7 µM; in assay [8] it was 17.3 µM; in assay [9], 84.4 µM. Moreover, the GI50 in assay [10] is 25 µM. For the same compound, the TGI in assay [2] is 96.9 µM and 144 µM and 350 µM; in assay [4] it was 34.4 µM; in assay [1], 134 µM; in assay [5], 36.4 µM and 128 µM and 114 µM; in assay [6], 39.2 µM and 98.6 µM and 86.2 µM; in assay [7], 65.1 µM and 124 µM and 170 µM. Besides, the TGI in [8] is 32.8 µM and 111 µM and 76.6 µM; in assay [9] it was 56.2 µM and 152 µM; in assay [10], 132 µM; in assay [11], 101 µM.

`Cc1nc2c(Br)cc(Br)cc2c(=O)n1-c1ccccc1NC1OCC(O)C(O)C1O` (configuration not stated): in assay [1], the TGI was over 100 µM.

`CCOc1ccccc1NC(=O)C1=C(C)NC(C)=C(C(=O)Nc2ccccc2OCC)C1c1ccc([N+](=O)[O-])cc1`: the TGI in assay [2], in assay [3], in assay [6], in assay [7], in assay [8] and in assay [9] was over 100 µM throughout. Further, the TGI in assay [10] was over 100 µM.

`Nc1nc(=S)[nH]c(C(=O)Nc2nccs2)c1-c1ccccc1`: the TGI in [2], in [3], in [5], in [6], in assay [7] and in [8] was over 100 µM each time. The TGI in [9] was over 100 µM.

Turning to `CC(=O)OCC1OC(n2c(=S)n(-c3ccccc3)c(=O)c3cc(Br)cc(Br)c32)C(OC(C)=O)C(OC(C)=O)C1OC(C)=O` (configuration not stated), the TGI in assay [2] was over 100 µM; in [3], over 100 µM; in assay [5] it was 69.7 µM and > 100 µM; in assay [6], over 100 µM; in assay [7], over 100 µM; in assay [8], over 100 µM. In addition, the GI50 in assay [5] was 17.2 µM and 49.1 µM.

As to `CCCCCCCCCCCCCCC(C)CCC(=O)O` (configuration not stated), the TGI in [3], in assay [5], in [6] and in [9] was over 100 µM throughout.

With `COCC1N=C(c2cc(OC)c(OC)c(OC)c2-c2cc3c(cc2[C@H](C)O)OCO3)O[C@H]1c1ccccc1` (some centres not stated), the TGI in [2], in assay [3], in assay [6], in assay [7], in [8] and in [9] was over 100 µM throughout. Also, in assay [10], the TGI is over 100 µM.

With `O=C(CC1=Nc2nnc(-c3nnc4n3C(=O)C(CC(=O)C3CC3)=N4)n2C1=O)C1CC1`, the TGI in assay [2], in assay [3], in [6], in [7] and in assay [8] was over 100 µM throughout.

Turning to `c1ccc2c3c([nH]c2c1)C1C2CCCCN2C(c2ccncc2)N1CC3` (configuration not stated), the TGI was 67.1 µM in [2]; over 100 µM in assay [3]; 98 µM in assay [5]; over 100 µM in assay [7]; over 100 µM in [8].

In the case of `C=C(Cl)[C@@](Cl)(CBr)CC[C@@H](Br)C(C)(C)Cl`, the GI50 in assay [1] was 1.69 µM.

In the case of `COc1cc(N(CCC#N)CCC#N)ccc1/C(N=Nc1ccc(C(=O)O)cc1)=N/NC(=O)c1cc(Br)ccc1O`, in assay [1], the GI50 was 108 µg/mL and the TGI is over 150 µg/mL.

`OCC(O)C(O)C(O)C(O)c1nn[nH]n1` (configuration not stated): the TGI in assay [3], in assay [5], in [6], in [7] and in assay [8] was over 100 µM in each case.

Compound `Cc1ccc(C2=C(Cl)C(=O)C(c3ccc(C)cc3)=C(Cl)C2=O)cc1` returned a TGI in assay [1] of over 100 µM.

Regarding `CC(=O)[O-].[Mn+3].[O-]c1ccc(Cl)cc1C=NCCN=Cc1cc(Cl)ccc1[O-]`, the GI50 is over 100 µM in assay [3]; 36.9 µM in assay [6]; over 100 µM in assay [7]; over 100 µM in assay [8]; 51.9 µM in assay [9]. Moreover, the TGI in [3], in [6], in assay [7], in assay [8] and in assay [9] was over 100 µM throughout.

In turn, `CN(C)c1ccc(C2CC(C)(O)Oc3cc4c(cc32)OCO4)cc1` (configuration not stated) returned a TGI in assay [1] of over 100 µM.

(Values after PubChem BioAssay (NCI).)
